Source: ChEMBL document CHEMBL3259766, “Design, synthesis and biological evaluation of benzylisoquinoline derivatives as multifunctional agents against Alzheimer's disease” (Bioorg Med Chem Lett, 2014)

Tests used:
Acetylcholinesterase [1] = molecular target: Acetylcholinesterase (Electrophorus electricus, UniProt O42275); test: Inhibition of electric eel AChE using acetylthiocholine iodide as substrate preincubated with enzyme for 6 mins followed by substrate addition by Ellman's method
Cholinesterase [2] = molecular target: Cholinesterase (Equus caballus, UniProt P81908); test: Inhibition of BuChE in equine serum using S-butyrylthiocholine iodide as substrate preincubated with enzyme for 6 mins followed by substrate addition by Ellman's method
Sequence of Cholinesterase (Equus caballus, UniProt P81908) (P81908 whole entry): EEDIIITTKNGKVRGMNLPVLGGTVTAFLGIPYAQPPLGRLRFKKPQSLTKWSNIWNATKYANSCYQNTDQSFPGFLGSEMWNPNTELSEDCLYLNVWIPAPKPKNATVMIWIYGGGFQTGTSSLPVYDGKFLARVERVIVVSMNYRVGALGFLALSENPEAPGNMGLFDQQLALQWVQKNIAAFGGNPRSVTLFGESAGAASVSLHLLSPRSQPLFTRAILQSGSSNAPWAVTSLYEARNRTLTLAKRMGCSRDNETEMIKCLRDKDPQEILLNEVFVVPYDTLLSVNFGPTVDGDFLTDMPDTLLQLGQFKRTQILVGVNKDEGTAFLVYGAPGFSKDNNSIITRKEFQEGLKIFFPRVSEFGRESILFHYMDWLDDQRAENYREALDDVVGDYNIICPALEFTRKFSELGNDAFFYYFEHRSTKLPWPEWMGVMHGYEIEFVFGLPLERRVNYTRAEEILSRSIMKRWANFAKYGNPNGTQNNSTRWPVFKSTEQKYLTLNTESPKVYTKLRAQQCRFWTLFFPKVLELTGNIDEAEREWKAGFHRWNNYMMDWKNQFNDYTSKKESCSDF

[3] = Selectivity index, ratio of IC50 for BuChE in equine serum to IC50 for electric eel AChE
[4] = molecular target: Amyloid-beta precursor protein (Homo sapiens) (UniProt P05067); test: Inhibition of amyloid beta (1 to 42) (unknown origin) self-aggregation at 20 uM after 46 to 48 hrs by thioflavin T based fluorometric assay
Sequence of Amyloid-beta precursor protein (Homo sapiens) (P05067 whole entry): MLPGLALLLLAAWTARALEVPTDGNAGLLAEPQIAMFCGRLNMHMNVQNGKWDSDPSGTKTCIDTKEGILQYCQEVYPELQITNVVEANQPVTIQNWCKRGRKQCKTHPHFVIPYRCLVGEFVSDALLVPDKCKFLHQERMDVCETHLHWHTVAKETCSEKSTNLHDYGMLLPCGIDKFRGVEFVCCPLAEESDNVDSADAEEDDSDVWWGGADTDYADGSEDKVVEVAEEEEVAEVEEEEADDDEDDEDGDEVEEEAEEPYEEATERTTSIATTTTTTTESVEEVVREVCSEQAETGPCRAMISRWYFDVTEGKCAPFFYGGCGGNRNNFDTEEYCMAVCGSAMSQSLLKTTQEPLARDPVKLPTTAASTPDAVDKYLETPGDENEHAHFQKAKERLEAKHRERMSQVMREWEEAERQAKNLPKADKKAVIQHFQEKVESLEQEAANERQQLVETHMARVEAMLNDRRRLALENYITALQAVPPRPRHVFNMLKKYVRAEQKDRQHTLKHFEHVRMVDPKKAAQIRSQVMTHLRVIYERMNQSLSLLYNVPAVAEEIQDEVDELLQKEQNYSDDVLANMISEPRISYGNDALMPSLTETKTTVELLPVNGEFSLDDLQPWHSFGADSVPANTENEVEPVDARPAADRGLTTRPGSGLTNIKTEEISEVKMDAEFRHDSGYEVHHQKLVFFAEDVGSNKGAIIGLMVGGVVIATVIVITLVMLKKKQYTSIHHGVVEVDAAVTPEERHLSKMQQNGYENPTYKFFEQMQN

Acetylcholinesterase [5] = molecular target: Acetylcholinesterase (Homo sapiens, UniProt P22303); test: Inhibition of AChE in human erythrocytes using acetylthiocholine iodide as substrate preincubated with enzyme for 20 mins followed by substrate addition by Ellman's method; type: cell-based
Sequence of Acetylcholinesterase (Homo sapiens, UniProt P22303) (P22303 whole entry): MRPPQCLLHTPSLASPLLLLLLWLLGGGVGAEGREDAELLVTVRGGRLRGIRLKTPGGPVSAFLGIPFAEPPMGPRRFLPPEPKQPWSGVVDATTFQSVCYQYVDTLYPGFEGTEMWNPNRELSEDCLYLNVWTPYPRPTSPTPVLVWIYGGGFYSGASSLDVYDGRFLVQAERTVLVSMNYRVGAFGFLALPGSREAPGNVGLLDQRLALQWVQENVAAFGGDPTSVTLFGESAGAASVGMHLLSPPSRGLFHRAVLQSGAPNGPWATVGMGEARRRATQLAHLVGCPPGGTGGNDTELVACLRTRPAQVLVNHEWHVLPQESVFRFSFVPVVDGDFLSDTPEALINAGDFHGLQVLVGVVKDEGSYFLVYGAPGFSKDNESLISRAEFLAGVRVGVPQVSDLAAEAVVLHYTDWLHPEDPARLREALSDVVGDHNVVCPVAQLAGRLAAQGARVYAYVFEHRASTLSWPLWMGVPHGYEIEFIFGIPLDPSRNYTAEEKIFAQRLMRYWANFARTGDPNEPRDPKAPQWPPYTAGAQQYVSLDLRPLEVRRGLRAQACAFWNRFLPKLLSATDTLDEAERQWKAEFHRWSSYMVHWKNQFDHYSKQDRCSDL

Cholinesterase [6] = molecular target: Cholinesterase (Homo sapiens, UniProt P06276); test: Inhibition of BuChE in human serum using S-butyrylthiocholine iodide as substrate preincubated with enzyme for 20 mins followed by substrate addition by Ellman's method
Sequence of Cholinesterase (Homo sapiens, UniProt P06276) (P06276 whole entry): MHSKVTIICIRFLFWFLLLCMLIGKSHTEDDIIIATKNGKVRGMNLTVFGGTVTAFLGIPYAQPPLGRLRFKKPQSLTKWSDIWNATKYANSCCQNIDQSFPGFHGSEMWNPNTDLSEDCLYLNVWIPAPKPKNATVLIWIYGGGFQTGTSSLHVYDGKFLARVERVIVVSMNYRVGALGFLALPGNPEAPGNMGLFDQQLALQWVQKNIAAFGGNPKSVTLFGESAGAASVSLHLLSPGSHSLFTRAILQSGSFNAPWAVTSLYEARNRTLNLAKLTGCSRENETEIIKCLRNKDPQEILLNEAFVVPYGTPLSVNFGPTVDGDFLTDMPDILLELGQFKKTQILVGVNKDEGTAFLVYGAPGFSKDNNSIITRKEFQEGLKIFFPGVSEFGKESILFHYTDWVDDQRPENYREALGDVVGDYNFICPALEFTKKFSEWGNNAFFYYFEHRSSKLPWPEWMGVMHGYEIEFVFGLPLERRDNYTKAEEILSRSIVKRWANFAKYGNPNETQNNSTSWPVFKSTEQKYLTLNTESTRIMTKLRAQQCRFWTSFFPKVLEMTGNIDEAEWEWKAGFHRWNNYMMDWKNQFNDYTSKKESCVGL

Homo sapiens = species on record: Homo sapiens; test: Selectivity index, ratio of IC50 for BuChE in human serum to IC50 for AChE in human erythorcytes; type: cell-based
[7] = Cytotoxicity against human SH-SY5Y cells assessed as cell viability at 0.1 uM after 24 hrs by MTT assay; type: cell-based; settings: read-out: Activity
[8] = Cytotoxicity against human SH-SY5Y cells assessed as cell viability at 0.5 uM after 24 hrs by MTT assay; type: cell-based; settings: read-out: Activity
[9] = Cytotoxicity against human SH-SY5Y cells assessed as cell viability at 1 uM after 24 hrs by MTT assay; type: cell-based; settings: read-out: Activity
[10] = Cytotoxicity against human SH-SY5Y cells assessed as cell viability at 2 uM after 24 hrs by MTT assay; type: cell-based; settings: read-out: Activity
[11] = Cytotoxicity against human SH-SY5Y cells assessed as cell viability at 5 uM after 24 hrs by MTT assay; type: cell-based; settings: read-out: Activity
[12] = Cytotoxicity against human SH-SY5Y cells assessed as cell viability at 10 uM after 24 hrs by MTT assay; type: cell-based; settings: read-out: Activity

Sequence of Acetylcholinesterase (Electrophorus electricus, UniProt O42275) (O42275 whole entry): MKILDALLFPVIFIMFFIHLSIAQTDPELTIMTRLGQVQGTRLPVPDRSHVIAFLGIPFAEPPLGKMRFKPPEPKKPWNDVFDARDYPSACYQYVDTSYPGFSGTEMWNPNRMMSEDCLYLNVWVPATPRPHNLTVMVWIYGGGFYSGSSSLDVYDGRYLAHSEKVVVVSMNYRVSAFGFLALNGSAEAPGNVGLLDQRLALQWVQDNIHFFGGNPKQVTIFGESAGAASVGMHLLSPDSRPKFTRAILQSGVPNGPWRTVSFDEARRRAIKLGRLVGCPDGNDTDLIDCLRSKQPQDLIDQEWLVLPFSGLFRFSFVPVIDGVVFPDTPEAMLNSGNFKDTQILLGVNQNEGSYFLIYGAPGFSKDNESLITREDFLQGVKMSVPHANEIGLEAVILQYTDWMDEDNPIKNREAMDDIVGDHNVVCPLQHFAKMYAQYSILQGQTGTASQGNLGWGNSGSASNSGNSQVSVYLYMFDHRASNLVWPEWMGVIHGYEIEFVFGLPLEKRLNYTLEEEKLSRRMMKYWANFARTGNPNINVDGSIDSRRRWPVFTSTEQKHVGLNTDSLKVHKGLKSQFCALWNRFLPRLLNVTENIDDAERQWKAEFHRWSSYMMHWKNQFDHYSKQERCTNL

| SMILES | IC50 (Acetylcholinesterase [1]) | IC50 (Cholinesterase [2]) | Ratio IC50 [3] | inhibition [4] | IC50 (Acetylcholinesterase [5]) | IC50 (Cholinesterase [6]) | Ratio IC50 (Homo sapiens) | viability at 24 h, 0.1 µM [7] | viability at 24 h, 0.5 µM [8] | viability at 24 h, 1 µM [9] | viability at 24 h, 2 µM [10] | viability at 24 h, 5 µM [11] | viability at 24 h, 10 µM [12] |
| --- | --- | --- | --- | --- | --- | --- | --- | --- | --- | --- | --- | --- | --- |
| CCN(CC)CCCCCOc1ccc(CC2NCCc3cc(OC)c(OC)cc32)cc1 (configuration not stated) | 7.02 µM | 10.3 µM | 1.46 | 34.3% | – | – | – | – | – | – | – | – | – |
| COc1cc2c(cc1OC)C(Cc1ccc(OCCCCCCN3CCC(O)CC3)cc1)NCC2 (configuration not stated) | 13.3 µM | 14.2 µM | 1.07 | 62.1% | 9.59 µM | 23.7 µM | 2.47 | – | – | – | – | – | – |
| COc1cc2c(cc1OC)C(Cc1ccc(OCCCCCCN3CCN(c4ccccc4)CC3)cc1)NCC2 (configuration not stated) | 17.1 µM | 8.78 µM | 0.51 | 65.8% | 16.3 µM | 12.9 µM | – | – | – | – | – | – | – |
| COc1cc2c(cc1OC)C(Cc1ccc(OCCCCCCN(C)C)cc1)NCC2 (configuration not stated) | 3.14 µM | 8.65 µM | 2.75 | 55.3% | 7.13 µM | 3.43 µM | 0.48 | – | – | – | – | – | – |
| COc1cc2c(cc1OC)C(Cc1ccc(OCCCCCCN3CCCC3)cc1)NCC2 (configuration not stated) | 1.28 µM | 2.34 µM | 2.05 | 69% | 2.98 µM | 2.27 µM | 0.76 | – | – | – | – | – | – |
| COc1cc2c(cc1OC)C(Cc1ccc(OCCCCCCN3CCCCC3)cc1)NCC2 (configuration not stated) | 1.14 µM | 2.51 µM | 1.96 | 76.4% | 2.14 µM | 3.25 µM | 1.69 | – | – | – | – | – | – |
| CCN(CC)CCCCOc1ccc(CC2NCCc3cc(OC)c(OC)cc32)cc1 (configuration not stated) | 7.58 µM | 15.3 µM | 2.02 | 47.3% | – | – | – | – | – | – | – | – | – |
| COc1cc2c(cc1OC)C(Cc1ccc(O)cc1)NCC2 (configuration not stated) | > 100 µM | 39.7 µM | – | 36% | > 100 µM | 46.8 µM | – | – | – | – | – | – | – |
| COc1cc2c(cc1OC)C(Cc1ccc(OCCCCCCN3CCCCC3C)cc1)NCC2 (configuration not stated) | 0.95 µM | 3.13 µM | 3.29 | 78.4% | 2.2 µM | 5.83 µM | 1.49 | 96.8% | 98.8% | 96.8% | 96.1% | 94.5% | 91.1% |
| COc1cc2c(cc1OC)C(Cc1ccc(OCCCCCCN3CCC(O)(Cc4ccccc4)CC3)cc1)NCC2 (configuration not stated) | 41.7 µM | 12.8 µM | 0.31 | 62.7% | 39.6 µM | 15.9 µM | 0.4 | – | – | – | – | – | – |
| CCN(CC)CCCCCCCOc1ccc(CC2NCCc3cc(OC)c(OC)cc32)cc1 (configuration not stated) | 4.67 µM | 9.13 µM | 1.96 | 43.9% | – | – | – | – | – | – | – | – | – |
| COc1cc2c(cc1OC)C(Cc1ccc(OCCCCCCN3CCCC3C)cc1)NCC2 (configuration not stated) | 1.34 µM | 3.35 µM | 2.5 | 72.3% | 4.5 µM | 6.42 µM | 1.43 | – | – | – | – | – | – |
| CCCN(CCC)CCCCCCOc1ccc(CC2NCCc3cc(OC)c(OC)cc32)cc1 (configuration not stated) | 3.01 µM | 4.32 µM | 1.44 | 51.2% | 3.46 µM | 11.2 µM | 3.23 | – | – | – | – | – | – |
| CCN(CC)CCCCCCCCOc1ccc(CC2NCCc3cc(OC)c(OC)cc32)cc1 (configuration not stated) | 6.33 µM | 20.1 µM | 3.17 | 39.6% | – | – | – | – | – | – | – | – | – |
| COc1cc2c(cc1OC)C(Cc1ccc(OCCCCCCN3CCN(Cc4ccccc4)CC3)cc1)NCC2 (configuration not stated) | 53.5 µM | 10.5 µM | 0.2 | 61.4% | 5.59 µM | 21.7 µM | 3.88 | – | – | – | – | – | – |
| CCCCN(CCCC)CCCCCCOc1ccc(CC2NCCc3cc(OC)c(OC)cc32)cc1 (configuration not stated) | 3.43 µM | 3.46 µM | 1.01 | 51.4% | 3.85 µM | 6.02 µM | 1.56 | – | – | – | – | – | – |
| COc1cc2c(cc1OC)C(Cc1ccc(OCCCCCCN3CCOCC3)cc1)NCC2 (configuration not stated) | 28.6 µM | 13 µM | 0.45 | 57.4% | 35.5 µM | 10.6 µM | 0.29 | – | – | – | – | – | – |
| CCN(CC)CCCOc1ccc(CC2NCCc3cc(OC)c(OC)cc32)cc1 (configuration not stated) | 13.2 µM | 20.8 µM | 1.57 | 41.1% | – | – | – | – | – | – | – | – | – |
| COc1cc2c(cc1OC)C(Cc1ccc(OCCCCCCN3CCC(c4ccccc4)CC3)cc1)NCC2 (configuration not stated) | 6.69 µM | 7.99 µM | 1.19 | 61.2% | 9.33 µM | 9.29 µM | – | – | – | – | – | – | – |
| CCN(CC)CCCCCCOc1ccc(CC2NCCc3cc(OC)c(OC)cc32)cc1 (configuration not stated) | 2.28 µM | 4.95 µM | 2.17 | 56.4% | 4.99 µM | 16.7 µM | 3.35 | – | – | – | – | – | – |
